Consider one substance from patent US20230346827A1 (priority 2020, published 2023).

Assay [1] relates to rats with TGFβ1-induced trabecular meshwork fibrosis. Briefly: Rodent model of anterior segment fibrosis / ocular hypertension (IC TGFβ1), s.c. LMW-DS 15 mg/kg daily. It counts as in vivo, rat. Particulars: day 28. On the procedure: Before induction of raised IOP, rats were randomly assigned into two groups (for saline vehicle and LMW-DS treatment). Induction of raised IOP was induced as previously described (Hill LJ, et al. Decorin reduces intraocular pressure and retinal ganglion cell loss in rodents through fibrolysis of the scarred trabecular meshwork. Investigative ophthalmology & visual science. 2015; 56(6): 3743-57). At 0 d, a 15° disposable blade was used to make a self-sealing tunnel through the cornea and this access point was employed for all subsequent twice weekly 3.5 µl IC injections of 5 ng/ml TGFβ1 (Peprotech, London, UK), carried out using sterile glass micropipettes (Harvard Apparatus, Kent, UK) over the 28 d experiment. IOP was also measured twice-weekly (immediately prior to the IC injection) throughout the 28 d experiment. […] At 14 d, rats received either subcutaneous injections of 15 mg/kg LMW-DS (Tikomed AB) or an equivalent saline volume, which continued daily for 14 d. OCT measurements of the RFNL were taken at 28 d as a surrogate for RGC density and ocular tissues from both groups were processed for immunohistochemistry to assess levels of TM fibrosis and RGC survival.
Adult 10 week old) male Sprague Dawley rats (Charles River, Kent, UK) were housed with free access to food and water under a 12 h dark/light cycle. Surgery was performed at the Biomedical Services Unit at the University of Birmingham (UK) in accordance with the Home Office guidelines set out in the 1986 Animal Act (UK) and the ARVO Statement for the Use of Animals in Ophthalmic and Vision Research. Intraocular injections, optical coherence tomography and intraocular pressure measurements were all taken whilst rats were under inhaled anesthesia using between 2% - 5% isofluorane / 98% - 95% O2 (National Vet Supplies, UK). The welfare of all rats was monitored closely at all times.
IOP measurements were obtained using an iCare Tonolab (ICare, Helsinki, Finland) calibrated for rats. IOP was recorded twice weekly between 9 am and 11 am throughout the 28 d experiment to avoid confounding circadian variabilities in IOP. Immediately after induction of anesthesia, six rebound measurements were taken with the tonometer from the central cornea and averaged to give a single reading (mmHg). Each graphical data point represents the mean ± SEM of three readings (6 rebounds) taken from each rat sequentially to ensure accurate measurements.
Retinal nerve fiber layer (RNFL) measurements were taken at 28 d using a Spectralis HRA3 confocal scanning laser ophthalmoscope (Heidelberg Engineering, Heidelberg, Germany). Images were obtained from rats whilst under inhalational anesthesia (as described in the ‘Animals and Surgery’ section above). OCT images were taken of the retina around the optic nerve head and in-built software was used to segment images and quantify the RNFL thickness.
Rats were euthanized by an intraperitoneal injection of sodium pentobarbital (National Veterinary Supplies) on 28 d and intracardially perfused with 4% paraformaldehyde (PFA; TAAB, Aldermaston, UK) in PBS whilst under terminal anesthesia. Eyes were removed and immersion fixed in 4% PFA in PBS for 2 hours at room temperature and then cryoprotected using increasing concentrations of (10%, 20% and 30% sucrose) for 24 hours each at 4° C. […]

The test system of assay [2] is ALS patients. Briefly: ALSFRS-R / clinical observation in ALS patients (Example 15). It counts as in vivo, human. Particulars: five-week treatment period. On the procedure: Dextran sulfate (Tikomed AB, Viken, Sweden, WO 2016/076780) was administered at 1 mg/kg by […] subcutaneous injection once a week for five weeks to 13 human patients suffering from ALS.
ALSFRS-R was assessed pre-treatment and weekly thereafter for the 5 treatment weeks and for the visits at the follow-up period.

Assay [3] deals with differentiated lung myofibroblasts + (TNFα and TGFβ). Briefly: BioMAP MyoF system. It counts as cell-based, human. Particulars: annotated relative to vehicle controls. The text has this:
Cell types and stimuli used in each system are as follows: 3C system [HUVEC + (IL-1β, TNFα and IFNy)], 4H system [HUVEC + (IL-4 and histamine)], LPS system [PBMC and HUVEC + LPS (TLR4 ligand)], SAg system [PBMC and HUVEC + TCR ligands], BT system [CD19+ B cells and PBMC + (α-IgM and TCR ligands)], BF4T system [bronchial epithelial cells and HDFn + (TNFα and IL-4)], BE3C system [bronchial epithelial cells + (IL-1β, TNFα and IFNy)], CASM3C system [coronary artery smooth muscle cells + (IL-1 β, TNFα and IFNy)], HDF3CGF system [HDFn + (IL-1β, TNFα, IFNy, EGF, bFGF and PDGF-BB)], KF3CT system [keratinocytes and HDFn + (IL-1β, TNFα, IFNy and TGFβ)], MyoF system [differentiated lung myofibroblasts + (TNFα and TGFβ)] and Mphg system [HUVEC and M1 macrophages + Zymosan (TLR2 ligand)].
Systems are derived from either single cell types or co-culture systems. Adherent cell types are cultured in 96 or 384-well plates until confluence, followed by the addition of PBMC (SAg and LPS systems). […] Soluble factors from supernatants are quantified using either HTRF® detection, bead-based multiplex immunoassay or capture ELISA. Overt adverse effects of test agents on cell proliferation and viability (cytotoxicity) are detected by sulforhodamine B (SRB) staining, for adherent cells, and alamarBlue® reduction for cells in suspension. […]

For assay [4], the system named is SARS-CoV-2. Particulars: incubation of SARS-CoV-2 with exogenous LMW-DS; cited from earlier work.

For sodium salt of dextran sulfate [LMW-DS], in assay [1], the “fibronectin in the TM (immunoreactive)” value amounted to 40.2 ± 4.0%, the “laminin in the TM (immunoreactive)” value stood at 25.6 ± 3.5%, the “retinal nerve fibre layer (RNFL) thickness (OCT)” value worked out at 59.9 ± 1.2 µm and the “surviving retinal ganglion cells (RGC)” value was 12.6 ± 0.4 RGC/mm. In assay [1] (IC TGFβ1 with SC LMW-DS from day 14), this substance displayed an IOP of 11.4 ± 0.2 mmHg. In assay [2], the “severe bulbar paresis (two patients)” value is listed as “almost complete resolution”. For the same substance, the Increased biomarker activity entry in assay [3] is given as “IL-8”. For the same substance, in assay [4], the “viral replication within ex vivo human lung tissue explants” value is given as “reduced viral replication”.
